This passage reports MIC and MBEC value results from paper PMC7504215, “Copper(II) Complexes with Mixed Heterocycle Ligands as Promising Antibacterial and Antitumor Species” (Molecules, 2020).

Usually MIC stands for the lowest concentration that inhibits growth of the organism. Read a high MIC as a less susceptible organism.

Common to all, as to format: cell-based, Staphylococcus aureus
In experiment [1] the test system is MRSA. Put plainly: MIC assay, liquid medium microdilution (planktonic growth). To be noted: 24 h at 37 °C.
In experiment [2] the test system is S. aureus 6538. Described as above. To be noted: S. aureus 6538, 24 h at 37 °C.
For experiment [3], the system named is MRSA. Briefly: MBEC assay, micro-titer method (biofilm). The protocol: (§1) The antibacterial assays were performed on Gram-negative (Escherichia coli ATCC 25922, E. coli 5, Pseudomonas aeruginosa ATCC 27853, P. aeruginosa ATCC 9027) and Gram-positive (Staphylococcus aureus ATCC 25923, S. aureus ATCC 6538, MRSA (Meticillin-resistant S. aureus) 388, ATCC, American Type Culture Collection) bacterial strains. Microbial suspensions (1.5 × 10^8 CFU/mL; colony forming units (CFU)) corresponding to 0.5 McFarland density obtained from 15 to 18-h bacterial cultures developed on solid media were used. The antimicrobial activity was tested on Mueller–Hinton agar medium.
(§2) The assessment of the complexes’ influence on the microbial ability to colonize an inert substratum with the establishment of the minimal biofilm eradication concentration (MBEC) was performed by the micro-titer method, following previously described protocols. The absorbance at 490 nm was measured with an Apollo LB 911ELISA (Berthold Technologies GmbH & Co. KG, Waltham, MA, USA) reader. All experiments were performed in triplicates.

Experiment [4] concerns S. aureus 25923. Briefly: MBEC assay, micro-titer method (biofilm). The protocol:
as §1, §2

Experiment [5] deals with S. aureus 6538. Briefly: MBEC assay, micro-titer method (biofilm). The protocol:
as §1, §2

As for `Cc1cc(-c2ccccc2)nc2ncnn12.[Cu+2].[O-][Cl+3]([O-])([O-])[O-].[O-][Cl+3]([O-])([O-])[O-].c1cnc2c(c1)ccc1cccnc12.c1cnc2c(c1)ccc1cccnc12` [(2), [Cu(phen)2(pmtp)](ClO4)2], the figures for the MIC in experiment [1] and in experiment [2] were 50 µM and 90 µM, respectively. The MBEC value in experiment [3] came out at 0.05 mM; in experiment [4], 0.01 mM; in experiment [5], 0.02 mM.
`Cc1cc(-c2ccccc2)nc2ncnn12.[Cu+2].[O-][Cl+3]([O-])([O-])[O-].[O-][Cl+3]([O-])([O-])[O-].c1ccc(-c2ccccn2)nc1.c1ccc(-c2ccccn2)nc1` [(1), [Cu(bpy)2(pmtp)](ClO4)2]: the MIC in experiment [1] and in experiment [2] was 400 µM in each case. Besides, the MBEC value in experiment [3] stood at 0.40 mM; in experiment [5], 0.10 mM.
